Reference: publication PMC8589421, “Impact of Type II LRRK2 inhibitors on signaling and mitophagy” (Biochemical Journal, 2021)
Entries after “also recorded” stand apart in the source; their conditions may differ. Like-named read-outs stand apart in the source and are kept apart here.

What was measured:
Format in all cases: cell-based, mouse
[1] = test system: LRRK2 mediated phosphorylation of Rab10 at Thr73; test: Rab10 Thr73 phospho-immunoblot in wild-type MEFs; settings: for IC50: Mus musculus
Method: (§1) Wild-type and homozygous LRRK2 [R1441C] […] All cells were grown at 37°C, 5% (by vol) CO2 in a humidified atmosphere and regularly tested for mycoplasma contamination.
(§2) Inhibitors were dissolved in dimethyl sulfoxide (DMSO) (Sigma, #D2650). The inhibitors were diluted 1000× into cell medium. The equivalent volume of DMSO was added to the minus inhibitor controls. Experiments were performed in six-well plates, 10 cm dishes or 15 cm dishes depending on the amount of cell extract required.
(§3) Lysates were incubated on ice for 30 min and clarified by centrifugation at 20 800×g at 4°C for 20 min. Supernatants were quantified by Bradford assay (Bio-Rad Protein Assay Dye Reagent Concentrate #5000006) and samples prepared in 1× lithium dodecyl sulfate sample buffer final concentration (NuPage LDS Sample buffer 4× Invitrogen, #NP0008). When not deployed immediately, lysates were snap-frozen in liquid nitrogen and stored at −80°C until use.
(§4) Cell extracts were mixed with a quarter of a volume of NuPage LDS Sample buffer 4× Invitrogen and heated at 95°C for 5 min. […] At the end of electrophoresis, proteins were electrophoretically transferred onto the nitrocellulose membrane (GE Healthcare, Amersham Protran Supported 0.45 µm NC) at 100 V for 90 min on ice in the transfer buffer (48 mM Tris–HCl and 39 mM glycine supplemented with 20% methanol). Transferred membrane was blocked with 5% (w/v) skim milk powder dissolved in TBS-T [20 mM Tris–HCl, pH 7.5, 150 mM NaCl and 0.1% (v/v) Tween 20] at room temperature for 1 h. The membrane was typically cropped into three pieces, namely the ‘top piece’ (from the top of the membrane to 75 kDa), the ‘middle piece’ (between 75 and 30 kDa) and the ‘bottom piece’ (from 30 kDa to the bottom of the membrane). All primary antibodies were used at 1 μg/ml final concentration and incubated in TBS-T containing 5% (by mass) bovine serum albumin with exception of α-tubulin and GAPDH antibodies that were diluted 1 : 5000 and 1 : 2000, respectively. The top piece was incubated with the indicated rabbit anti-LRRK2 phosphorylation site antibody multiplexed with mouse anti-LRRK2 C-terminus total antibody. The middle piece was incubated with mouse anti-GAPDH or anti-α-tubulin antibody. The bottom pieces were incubated with indicated total and phospho-Rab antibodies. Membranes were incubated in primary antibody overnight at 4°C. Prior to secondary antibody incubation, membranes were washed three times with TBS-T for 10 min each. […] Membranes were washed with TBS-T for three times with a 10 min incubation for each wash. Protein bands were acquired via near infrared fluorescent detection using the Odyssey CLx imaging system and quantified using the Image Studio software.

[2] = test system: LRRK2 at Ser935; test: LRRK2 Ser935 phospho-immunoblot in wild-type MEFs
Method: as §1, §2, §3, §4

[3] = test system: basal mitophagy, LRRK2[G2019S] MEFs; test: mito-QC basal mitophagy in LRRK2[G2019S] knock-in primary MEFs; settings: 24 h, 30–300 nM GZD-824, GSK3357679A 100 nM positive control
Method: To assess mitophagy, wild type, G2019S knock in, and LRRK2 knock out primary mouse embryonic fibroblasts (MEFs) were derived, from time-mated pregnant females at E12.5 as previously described. Briefly, cells were plated on glass coverslips and incubated with DMEM (Gibco, 11960-044) supplemented with 10% FBS, 2 mM L-Glutamine (Gibco, 2503-081), 1% non-essential amino acids (Gibco, 11140-035), 1% Antibiotics (Penicillin/Streptomycin 100 U/ml penicillin and 100 µg/ml streptomycin; Gibco), and 150 µM β-Mercaptoethanol (Gibco, 21985-023) at 37°C under a humidified 5% CO2 atmosphere. […] GSK3357679A 100 nM (Ding et al., in prep) was used as a positive control. At the end of the treatment, MEFs were briefly washed twice in DPBS (Gibco, 14190-094), and fixed in 3.7% Paraformaldehyde pH 7.00 (Sigma, P6148), 200 mM HEPES, for 20 min. Cells were then washed two times with DMEM, 10 mM HEPES, and then incubated for 10 min with DMEM, 10 mM HEPES. […] Images were acquired using a Nikon Eclipse Ti-S fluorescence microscope with a 63× objective. Images were analyzed using the mito-QC counter as previously described. Experiments were performed in 3–4 independent experiments and data was analyzed with a one-way ANOVA followed by a Dunnett's multiple comparison test using the GraphPad Prism software (version 8.4.3 (686)).

`Cc1ccc(C(=O)Nc2ccc(CN3CCN(C)CC3)c(C(F)(F)F)c2)cc1C#Cc1cnc2[nH]ncc2c1` [GZD-824] showed an IC50 ([1]; 2 h, Figure 4, read-out: IC50 for dephosphorylation of Rab10, wild type MEFs (estimate in text)) of 70 nM, an IC50 ([1]; 2 h, wild type MEFs littermate matched to LRRK2[G2019S], 2 h, panel (B), read-out: LRRK2 WT Rab10 pThr73 IC50) of 65.9 nM and an IC50 ([1]; 2 h, wild type MEFs littermate matched to LRRK2[R1441C], 2 h, panel (A), read-out: LRRK2 WT Rab10 pThr73 IC50) of 86.5 nM. The IC50 ([1]; 2 h, wild-type MEFs, 2 h, Figure 2A, read-out: IC50 inhibition of Rab10 phosphorylation) was about 300 nM, the “Rab10 phosphorylation level after treatment” value ([1]; wild-type MEFs, 1 μM, 2 h) was “almost background levels; also recorded: almost basal levels” and the “Rab10 phosphorylation over 24 h time course” value ([1]; wild-type MEFs, 1 μM, 24 h) was “remained suppressed”. The “time to 50% reduction of Rab10 phosphorylation” value ([1]; wild-type MEFs, 1 μM, Figure 2C) was about 10 min, the “effect on LRRK2 Ser935 phosphorylation” value ([2]; MEFs, 2 h dose response) was “did not induce dephosphorylation” and the “Ser935 phosphorylation over 24 h time course” value ([2]; wild-type MEFs, 1 μM, 24 h) was “unaffected”. The “effect on LRRK2 Ser935 phosphorylation” value ([2]; wild-type MEFs, 10 μM, 2 h, Supplemental Figure S2A) was “did not reduce LRRK2 phosphorylation at Ser935 significantly” and the “stimulation of basal mitophagy” value [3] was about 2 fold.
